Measurements from patent publication US8906852B2 (MethylGene Inc., priority 2010, dated 2014).

Target: T1, VEGFR/KDR (Homo sapiens, UniProt P35968)
T1 construct: made in house; host or cells: Sf9 cells (Spodoptera frugiperda), baculovirus
Assay: VEGFR/KDR kinase inhibition, DELFIA assay
Type: biochemical
Settings: ATP 0.6 uM (2x Km), enzyme 5 nM
Procedure, shortened: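 Enzyme (5 nM) pre-incubated 4 min on ice with inhibitor and Mg-ATP (0.6 uM, 2× Km), then reacted 10-30 min at 30° C on immobilized poly(Glu4,Tyr). EDTA-quenched phosphotyrosine detected with Europium-labeled antibody by time-resolved fluorescence; IC50 from concentration series.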

T1 sequence (P35968 806-1356): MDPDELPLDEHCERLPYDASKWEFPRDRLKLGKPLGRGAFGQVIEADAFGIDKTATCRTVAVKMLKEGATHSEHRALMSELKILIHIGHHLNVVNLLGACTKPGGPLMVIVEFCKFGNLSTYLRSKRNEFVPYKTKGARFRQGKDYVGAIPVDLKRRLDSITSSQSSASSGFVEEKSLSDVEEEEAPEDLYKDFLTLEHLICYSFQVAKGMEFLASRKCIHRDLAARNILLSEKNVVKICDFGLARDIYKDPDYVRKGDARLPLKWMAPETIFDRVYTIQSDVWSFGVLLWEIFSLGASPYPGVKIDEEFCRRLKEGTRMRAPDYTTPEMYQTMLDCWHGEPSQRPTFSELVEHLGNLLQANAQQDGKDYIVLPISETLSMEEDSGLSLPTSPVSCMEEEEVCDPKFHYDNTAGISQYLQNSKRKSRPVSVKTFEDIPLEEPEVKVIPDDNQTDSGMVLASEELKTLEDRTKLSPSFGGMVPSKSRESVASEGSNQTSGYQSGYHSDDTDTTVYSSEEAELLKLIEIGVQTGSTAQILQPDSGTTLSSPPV

Row | IC50 [nM] | SMILES
1 | < 50 | CCNC(=O)N(CCOC)CCc1ccc(-c2cc3nccc(Oc4ccc(NC(=O)NC5CC5)cc4F)c3s2)nc1 [Compound 38, N-[3-(2-(6-(7-(4-(3-cyclopropylureido)-2-fluorophenoxy)-thieno[3,2-b]-pyridin-2-yl)pyridin-3-yl)ethyl)]-N-(1-ethyl)-N-[3-(2-methoxyethyl)]urea]
2 | < 50 | CN1CCN(C(=O)NC2CCN(Cc3ccc(-c4cc5nccc(Oc6ccc(NC(=O)NC7CC7)cc6F)c5s4)nc3)CC2)CC1 [Compound 357, N-(1-((6-(7-(4-(3-Cyclopropylureido)-2-fluorophenoxy)thieno[3,2-b]pyridin-2-yl)pyridin-3-yl)methyl)piperidin-4-yl)-4-methylpiperazine-1-carboxamide]
3 | < 50 | O=C(O)CCN1CCN(Cc2ccc(-c3cc4nccc(Oc5ccc(NC(=O)NC6CC6)c(F)c5F)c4s3)nc2)CC1 [Compound 172, 3-(4-((6-(7-(4-(3-cyclopropylureido)-2,3-difluorophenoxy)thieno-[3,2-b]pyridin-2-yl)pyridin-3-yl)methyl)piperazin-1-yl)propanoic acid]
4 | < 50 | CS(=O)(=O)N1CC=C(c2cc3nccc(Oc4ccc(NC(=O)NC5CC5)cc4F)c3s2)CC1 [Compound 275, 1-cyclopropyl-3-(3-fluoro-4-(2-(1-(methylsulfonyl)-1,2,3,6-tetrahydropyridin-4-yl)thieno[3,2-b]pyridin-7-yloxy)phenyl)urea]
5 | < 50 | CN(C(=O)NCC(=O)O)C1CCN(Cc2ccc(-c3cc4nccc(Oc5ccc(NC(=O)NC6CC6)cc5F)c4s3)nc2)CC1 [Compound 427]
6 | < 50 | CCOC(=O)CN(C)C1CCN(Cc2ccc(-c3cc4nccc(Oc5ccc(NC(=O)NC6CC6)cc5F)c4s3)nc2)CC1 [Compound 422, Ethyl 2-((1-((6-(7-(4-(3-cyclopropylureido)-2-fluorophenoxy)thieno[3,2-b]pyridin-2-yl)pyridin-3-yl)methyl)piperidin-4-yl)(methyl)amino)acetate]
7 | < 50 | CN(C(=O)OC(C)(C)C)C1CCN(Cc2ccc(-c3cc4nccc(Oc5ccc(NC(=O)NC6CC6)cc5F)c4s3)nc2)CC1 [342-A]
8 | < 50 | COC(=O)CCN1CCN(C(=O)c2ccc(-c3cc4nccc(Oc5ccc(NC(=O)NC6CC6)cc5F)c4s3)nc2)CC1 [Compound 580]
9 | < 50 | COC(=O)CCn1cc(-c2cc3nccc(Oc4ccc(NC(=O)NC5CC5)cc4F)c3s2)nn1 [Compound 369]

The next lines start with the compound.

Row | SMILES | IC50 [nM]
10 | O=C(Nc1ccc(Oc2ccnc3cc(C(=O)N4CCCCC4)sc23)c(F)c1)NC1CC1 [Compound 447] | < 50
11 | COCCNCCn1cnc(-c2cc3nccc(Oc4ccc(NC(=O)NC5CC5)cc4F)c3s2)c1 [compound 253] | < 50
12 | O=C(Nc1ccc(Oc2ccnc3cc(C(=O)N4CCOCC4)sc23)c(F)c1)NC1CC1 [Compound 450] | < 50
13 | COCCN(Cc1ccc(-c2cc3nccc(Oc4ccc(NC(=O)NC5CC5)nc4)c3s2)nc1)C(=O)CO [Compound 31, N-((6-(7-(6-(3-cyclopropylureido)pyridin-3-yloxy)thieno[3,2-b]pyridin-2-yl)pyridin-3-yl)methyl)-2-hydroxy-N-(2-methoxyethyl)acetamide] | 100 to 250
14 | NC(=O)c1cccc(NC(=O)Nc2ccc(Oc3ccnc4cc(-c5ccc(CN6CCCC6=O)cn5)sc34)c(F)c2)c1 [Compound 106, 3-(3-(3-fluoro-4-(2-(5-((2-oxopyrrolidin-1-yl)methyl)pyridin-2-yl)thieno[3,2-b]pyridin-7-yloxy)phenyl)ureido)benzamide] | < 50
15 | CCNC(=O)N(CCOC)Cc1ccc(-c2cc3nccc(Oc4ccc(NC(=O)NC5CC5)nc4)c3s2)nc1 [Compound 37, N-[3((6-(7-(6-(3-cyclopropylureido)-pyridin-3-yloxy)thieno[3,2-b]-pyridin-2-yl)pyridin-3-yl)methyl)]-N-(1-ethyl)-N-[3-(2-methoxyethyl)]urea] | 100 to 250
16 | CC(C)(C)C(=O)O[C@@H]1CCCN(C(=O)c2cc3nccc(Oc4ccc(NC(=O)NC5CC5)cc4F)c3s2)C1 [Compound 451] | ≥ 250
